Consider five molecules from patent US9475805B2, “Tricyclic compound” (Kyowa Hakko Kirin Co., Ltd., priority 2008, dated 2016).

By EC50 is commonly meant the concentration giving half of the maximal effect. Read a low EC50 as greater potency.

This experiment deals with T1, PPAR γ (Homo sapiens, UniProt P37231).
T1 construct: expressed in transfected cells; host or cells: HEK293EBNA
T1 sequence (P37231 174-475 isoform P37231-2): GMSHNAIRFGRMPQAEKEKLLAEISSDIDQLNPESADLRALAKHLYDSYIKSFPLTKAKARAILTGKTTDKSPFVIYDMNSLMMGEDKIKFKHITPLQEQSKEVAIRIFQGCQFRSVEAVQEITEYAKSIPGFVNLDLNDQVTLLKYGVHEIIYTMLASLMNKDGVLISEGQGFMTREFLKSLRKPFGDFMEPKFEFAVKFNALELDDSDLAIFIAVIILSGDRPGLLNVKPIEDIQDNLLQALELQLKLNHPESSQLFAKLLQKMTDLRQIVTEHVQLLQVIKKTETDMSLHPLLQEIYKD
Briefly: PPAR γ activation action based on transactivation assay of PPAR γ by transient gene transfer (GAL4-PPAR γ chimeric receptor, luciferase reporter, HEK293EBNA cells). The format is cell-based. The note with it: concentration showing 50% of the compound's own efficacy (maximum activity rate relative to pioglitazone 10 μmol/L = 100%), 24 hr. How it is done: The agonist activity of compound (I) to PPAR γ was determined by a transactivation assay method using a chimeric nuclear receptor of a DNA binding region of a yeast transcription factor GAL4 and a PPAR γ ligand binding region. Specifically, the PPAR γ agonist activity of compound (I) was evaluated by the following method based on the method of Lehmann et al. (J Biol Chem., 1995, vol. 270, page 12953).
HEK293EBNA cells cultured in Dulbecco's Modified Eagle medium (Invitrogen) containing 10 v/v % fetal calf serum (Invitrogen) were used. 30 mL of the above-mentioned cells (density: 1×10^5 cells/mL) were inoculated in a […] (Iwaki Glass), and cultured overnight. Using SuperFect Transfection Reagent (QIAGEN), a plasmid expressing a GAL4-PPAR γ chimeric nuclear receptor fusing 174-475 amino acids, which are human PPAR γ ligand binding region, and 1-147 amino acids, which are GAL4 DNA binding region, and a reporter plasmid expressing a GAL4 responsive luciferase were transiently introduced into the cells at a proportion of 4:1. After 5 hr from transfection, the cells were detached from the culture dish, and the detached cells (density: 2×10^4 cells/mL) were inoculated by 100 μL in each well of a 96 well white plate (SUMITOMO BAKELITE), and cultured overnight. The medium was removed, compound (I) diluted in various concentrations with serum-free Dulbecco's Modified Eagle medium was added by 100 μL, and the mixture was reacted under a 5% carbon dioxide gas stream (5% CO2) at 37° C. for 24 hr. On the other hand, as a positive control, 10 μmol/L of pioglitazone (100 μL) was added, and the mixture was reacted under a 5% carbon dioxide gas stream (5% CO2) at 37° C. for 24 hr. As a substrate of luciferase, 100 μL of Steady-Glo (Promega) was added to each well and the mixture was thoroughly stirred. Immediately thereafter, the chemical luminescence due to luciferase was measured using TopCount NTX (Packard).
The agonist activity (activity rate (%)) of compound (I) to PPAR γ was calculated according to the following formula, as a relative activity when the agonist activity on addition of pioglitazone (10 μmol/L) was 100%.
The molecule `CCCc1nc2c(C(C)(C)O)cccc2n1Cc1ccc2c(c1)COc1ccccc1/C2=C(\C)c1noc(=O)[nH]1` [Compound 96, (E)-8-[(4-Hydroxypropan-2-yl)-2-propylbenzimidazol-1-yl]methyl-11-[1-(5-oxo-4,5-dihydro-1,2,4-oxadiazol-3-yl)ethylidene]-6,11-dihydrodibenzo[b,e]oxepine] showed an EC50 of 13 nM.

`CCCc1nc2c(C(N)=O)cccc2n1Cc1ccc2c(c1)COc1ccccc1/C2=C(\C)c1noc(=O)[nH]1` [Compound 100, (E)-1-{11-[1-(5-Oxo-4,5-dihydro-1,2,4-oxadiazol-3-yl)ethylidene]-6,11-dihydrodibenzo[b,e]oxepin-8-yl}methyl-2-propylbenzimidazole-4-carboxamide] came in with a concentration for a half-maximal effect (EC50) of 20 nM.

`CCC/C(=C1/c2ccc(Cn3c(CCC)nc4ccccc43)cc2COc2ccccc21)c1noc(=O)[nH]1` [Compound 115, (E)-11-[1-(5-Oxo-4,5-dihydro-1,2,4-oxadiazol-3-yl)butylidene]-8-(2-propylbenzimidazol-1-yl)methyl-6,11-dihydrodibenzo[b,e]oxepine] came in with an EC50 of 36 nM.

In the case of `CCCc1nc2ccccc2n1Cc1ccc2c(c1)COc1ccc(F)cc1/C2=C(\C)c1noc(=O)[nH]1` [Compound 116, (E)-2-Fluoro-8-(2-propylbenzimidazol-1-yl)methyl-11-[1-(5-oxo-4,5-dihydro-1,2,4-oxadiazol-3-yl)ethylidene]-6,11-dihydrodibenzo[b,e]oxepine], the half-maximal effective concentration (EC50) was found to be 12 nM. Under `C/C(=C1\c2ccccc2OCc2nc(Cn3c(C4CC4)nc4c(Cl)ccnc43)ccc21)c1noc(=O)[nH]1` [Compound 119, (E)-2-(7-Chloro-2-cyclopropyl-3H-imidazo[4,5-b]pyridin-3-yl)methyl-5-[1-(5-oxo-4,5-dihydro-1,2,4-oxadiazol-3-yl)ethylidene]-5,11-dihydrobenzooxepino[3,4-b]pyridine] stands 314 nM.
